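Results reflect a 48-hour exposure of cells in 96-well plates to compound at five concentrations. Abbreviation: GI50, concentration required for 50% inhibition of growth.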 Activity calls are given as the source filed them. Rule as the data show it: active = GI50 up to about 1.1 µM and inactive = higher.
Legend:
Test in all cases: NCI-60 cell line screen, 48 h
[1] = system: HOP-62
[2] = system: NCI/ADR-RES
[3] = system: NCI-H226
[4] = system: CAKI-1
[5] = system: Hs-578T
[6] = system: DU-145
[7] = system: ACHN
[8] = system: TK-10
[9] = system: SK-MEL-2
[10] = system: T47D
[11] = system: PC-3
[12] = system: OVCAR-5
[13] = system: HCC 2998
[14] = system: SR
[15] = system: Malme-3M
[16] = system: EKVX
[17] = system: UACC-62

Measured: GI50

CC(=O)OC(OC(C)=O)n1cc(C=O)c2ccccc21
inactive: [1] > 100 µM | [2] > 100 µM | [3] > 100 µM | [4] > 100 µM | [5] > 100 µM | [6] > 100 µM | [7] > 100 µM | [8] > 100 µM | [9] > 100 µM | [10] > 100 µM | [11] > 100 µM | [12] > 100 µM | [13] > 100 µM | [14] > 100 µM

c1ccc(NN/N=N/c2ccc(-c3nc4ccccc4[nH]3)cc2)cc1
inactive: [1] 41.3 µM | [2] 22.1 µM | [3] 36.9 µM | [4] 30.1 µM | [5] 29.1 µM | [15] 28.7 µM | [6] 42.7 µM | [7] 25.8 µM | [8] 64.4 µM | [9] 23.9 µM | [10] 8.17 µM | [11] 26.8 µM | [12] > 100 µM | [16] 39.4 µM | [14] 31.8 µM

C[C@]12CC[C@H]3[C@@H](CCC4=CC(=O)CC[C@@]43C)[C@@H]1CC[C@@H]2C(=O)COS(=O)(=O)c1ccc(Br)cc1
inactive: [1] 17 µM | [17] 16 µM | [2] 10.6 µM | [3] 13.2 µM | [4] 7.76 µM | [5] 20.4 µM | [15] 3.49 µM | [6] 16.8 µM | [7] 10.9 µM | [8] 18.3 µM | [9] 8.38 µM | [10] 9.35 µM | [11] 8.85 µM | [12] 18.1 µM | [13] 2.09 µM | [16] 7.67 µM | [14] 1.4 µM

Cc1nc2ccccc2n1C(=O)c1c(F)c(F)c(F)c(F)c1F
inactive: [1] 23.9 µM | [17] 16.1 µM | [2] 17.5 µM | [3] 18.8 µM | [4] 16.7 µM | [5] 26.5 µM | [15] 19.8 µM | [6] 26.5 µM | [7] 22.9 µM | [8] 18.3 µM | [9] 7.41 µM | [10] 59.8 µM | [11] 17.5 µM | [12] 19 µM | [13] 17.6 µM | [16] 28.3 µM | [14] 2.34 µM

CN(/N=C1\C(=O)Nc2ccccc21)c1ccccc1
inactive: [1] 49.7 µM | [17] > 100 µM | [3] > 100 µM | [4] 22.1 µM | [5] 29.6 µM | [15] 31.9 µM | [6] > 100 µM | [7] 77.6 µM | [8] 69.2 µM | [9] > 100 µM | [10] 34.7 µM | [11] 45.4 µM | [12] 45.6 µM | [13] > 100 µM | [16] 29.8 µM | [14] 94 µM

Cc1cc(C)n(C(=C(C(Cl)=C(Cl)Cl)[N+](=O)[O-])n2nc(C)cc2C)n1
inactive: [1] 5.04 µM | [17] 4.06 µM | [2] 3.78 µM | [3] 5.66 µM | [4] 3.23 µM | [5] 4.66 µM | [15] 2.98 µM | [6] 4.12 µM | [7] 3.21 µM | [8] 3.39 µM | [9] 1.37 µM | [10] 4.05 µM | [11] 4.43 µM | [12] 7.93 µM | [13] 3.19 µM | [16] 2.58 µM

Cc1ccc(Nc2nc3ccccc3nc2NS(=O)(=O)c2ccc(N)cc2)cc1
inactive: [1] > 100 µM | [17] 36.1 µM | [2] 61.8 µM | [3] 78.7 µM | [4] 59.2 µM | [5] 65.5 µM | [15] 91.2 µM | [6] 97.9 µM | [7] 38.5 µM | [8] 45.9 µM | [9] 29.4 µM | [10] 44 µM | [11] 41.8 µM | [12] > 100 µM | [13] 3.64 µM | [16] > 100 µM | [14] 20.7 µM

CC1(C)CC(=O)C2=C(C1)OC1=C(CC(C)(C)CC1=O)C2c1ccccc1[N+](=O)[O-] (centres undefined)
inactive: [1] > 100 µM | [17] > 100 µM | [2] > 100 µM | [3] > 100 µM | [4] > 100 µM | [5] > 100 µM | [15] > 100 µM | [6] > 100 µM | [7] > 100 µM | [8] > 100 µM | [9] > 100 µM | [10] > 100 µM | [11] > 100 µM | [12] > 100 µM | [13] > 100 µM | [16] > 100 µM | [14] > 100 µM

c1ccc(C(NC2=NCCO2)c2ccccc2)cc1
inactive: [1] > 10 µM | [17] > 10 µM | [2] > 10 µM | [3] > 10 µM | [4] > 10 µM | [5] > 10 µM | [15] > 10 µM | [6] > 10 µM | [7] > 10 µM | [8] > 10 µM | [9] > 10 µM | [10] > 10 µM | [11] > 10 µM | [12] > 10 µM | [13] > 10 µM | [16] > 10 µM | [14] > 10 µM

ClCC1(CCl)COC1
inactive: [2] > 100 µM | [3] > 100 µM | [5] > 100 µM | [6] > 100 µM | [7] > 100 µM | [8] > 100 µM | [10] > 100 µM | [11] > 100 µM | [13] > 100 µM | [14] > 100 µM

Cc1cnc(/N=c2\sc(C)cn2-c2ncc(C)s2)s1
inactive: [1] > 100 µM | [17] > 100 µM | [2] > 100 µM | [3] > 100 µM | [5] > 100 µM | [15] > 100 µM | [6] > 100 µM | [7] > 100 µM | [8] > 100 µM | [10] > 100 µM | [11] > 100 µM | [12] > 100 µM | [13] > 100 µM | [16] > 100 µM | [14] > 100 µM

CC(=O)C1CC[C@@H]2[C@H](CC[C@]3(C)[C@@H](O)CC[C@@H]23)[C@H]1C(=O)O (some centres undefined)
inactive: [1] > 100 µM | [17] > 100 µM | [2] > 100 µM | [4] > 100 µM | [5] 74.1 µM | [15] > 100 µM | [8] > 100 µM | [9] > 100 µM | [11] > 100 µM | [12] > 100 µM | [13] > 100 µM | [16] > 100 µM | [14] > 100 µM

O=C(O)Cc1cc(F)ccc1C(=O)O
inactive: [1] > 100 µM | [17] > 100 µM | [2] > 100 µM | [4] 31 µM | [5] > 100 µM | [6] > 100 µM | [7] > 100 µM | [8] > 100 µM | [9] > 100 µM | [10] > 100 µM | [11] > 100 µM | [12] > 100 µM | [13] > 100 µM | [16] > 100 µM | [14] 77.1 µM

Reference: ChEMBL document CHEMBL1201862, “PubChem BioAssay data set” (2004)
